{"source": "patent EP2127664A1", "about": "“Change of the load state of MHC molecules by dipeptides” (priority 2008, dated 2009)", "key": {"[1]": {"molecular_target": "T1, soluble HLA-DR1 (DRA*0101, DRB1*0101) (Homo sapiens, UniProt P01903+P01911, A100R/D57E/F55L/F60I/F76Y/I96L/L162R/M171V/P40L/Q125E/R42F/V115G/Y59C)", "T1 construct": "Recombinant soluble HLA-DR1 (DRA*0101, DRB1*0101) (Sloan, V. S (1995) Nature 375, 802-806) was produced in S2 insect cells; made in house; host or cells: S2 insect cells", "experiment": "Peptide loading of soluble HLA-DR1 with HA306-318 (ELISA)", "assay_type": "biochemical", "conditions": "for catalytic rate enhancement: mean activity, soluble HLA-DR1 (DRB1*0101); for complex formation between HA306-318 and soluble HLA-DR1 (catalytic activity): titrated amounts of dipeptide, 100nM HLA-DR1, phosphate-buffered saline pH 7.4, 37 °C, 1 h", "source_text": "Antibodies and soluble HLA-DR1. The HLA-DR-specific antibody L243 (ATCC) was purified."}, "CLIP/HLA-DR1 complex": {"molecular_target": "T2, CLIP/HLA-DR1 complex (Homo sapiens, UniProt P01903+P01911, A100R/D57E/F55L/F60I/F76Y/I96L/L162R/M171V/P40L/Q125E/R42F/V115G/Y59C)", "T2 construct": "soluble class II MHC molecules were preloaded with the CLIP peptide; made in house; host or cells: S2 insect cells", "experiment": "Ligand exchange / complex dissociation of CLIP/HLA-DR1 (ELISA)", "assay_type": "biochemical", "conditions": "10 mM dipeptide; in the presence of free HA306-318", "experimental": "Ligand-exchange of soluble HLA-DR molecules- In vitro ligand exchange experiments were carried out by loading 1,5 µM of HLA-DR1 with biotinylated IC106-120, for 20 hrs (Höpner et al., (2006), supra) in presence of 5% ethanol. HLA-DR1:IC complex was diluted to 1:15 and incubated with 200µg/ml HA peptide in presence and absence of 10mM dipeptide."}, "[2]": {"test_system": "HLA-DR1 restricted mouse T cell hybridoma EvHA/X5", "experiment": "In vitro T cell assay with HA306-318 and peptide-MLE", "assay_type": "cell-based", "source_text": "(§1) Cells. Stable transfection of L929 fibroblasts (ATCC) were done to generate L101 (DRB1*0101 b86 G) or L101 (β86V) respectively (Höpner et al., (2006), supra). Epstein-Barr virus-transformed B cell 721.221(DRB1*0101) was obtained from ATCC. EvHA/X5 (DRB1*0101-restricted, HA306-318-specific) were derived from HLA-DR1tg mice (Rosloniec, E. F. (1997) J. Exp. Med. 185, 1113-1122) and were generated after fusion of the CD4+ EvHA T cell line with the BW cell (Höpner et al., (2006), supra). CD4+ T cell line PD2 , HLA-DR1 restricted and HA 306-318 specific (Falk K, et al., (2000) Eur. J. Immunol. 30, 3012-3020), ABL 908-922-specific T cell hybridoma SaABL/G2 was generated after fusing a CD4+ T cell line generated in HLA-DR1 […] mice with the BW cell.\n(§2) T cell Assays. For pulse wash experiments 5x 10^4 HLA-DR-expressing cells/well were loaded for 4 h with antigenic peptides in the presence and absence of dipeptides as described above. Cells were then washed, and 5x10^4 T cells were added to the culture, which was then incubated for 24 h in Dulbecco's modified Eagle's medium, 5% fetal calf serum in 96-well U-bottom plates. However for permanent assay, HLA-DR expressing cells, T cells and dipeptide stayed together in the reaction for 48 hrs. T cell response was determined in a secondary assay with CTL-L cells (ATCC) as described previously (Falk, K., (2002) J. Biol. Chem. 277, 2709-2715). In experiments with PD-2 cell line, HTR's (as APCs) were pre-irradiated for 520 sec and then used for experiments."}, "human T cell line PD2": {"test_system": "human T cell line PD2", "experiment": "In vitro T cell assay with HA306-318 and peptide-MLE", "assay_type": "cell-based", "source_text": "as §1, §2"}, "HLA-DR1 (β86G→V)": {"molecular_target": "T3, HLA-DR1 (β86G→V) (Homo sapiens, UniProt P01903+P01911, A100R/D57E/F55L/F60I/F76Y/I96L/L162R/M171V/P40L/Q125E/R42F/Y59C)", "T3 construct": "Recombinant soluble HLA-DR1 molecules were mutated at position 86; made in house; host or cells: S2 insect cells (printed for the recombinant soluble HLA-DR1; not repeated for the mutants)", "experiment": "Loading of soluble mutated HLA-DR1 with ABL908-922 (ELISA)", "assay_type": "biochemical", "conditions": "titrated amounts of dipeptide", "protocol": "Peptide loading/ of Soluble HLA-DR Molecules- For in vitro loading experiments 100nM HLA-DR1 was incubated with 40 µg/ml (phosphate-buffered saline, pH 7.4, 37 °C, 1 h)."}, "[3]": {"molecular_target": "T4, fibroblast cells transfected with mutated HLA-DR1 (β86G→V) (Homo sapiens, UniProt P01903+P01911, A100R/D57E/F55L/F60I/F76Y/I96L/L162R/M171V/P40L/Q125E/R42F/Y59C)", "T4 construct": "transfected with full length versions of wt HLA-DR1 (β86G) and mutated HLA-DR1 (β86G→V); expressed in transfected cells", "experiment": "Peptide loading of cell surface MHC molecules with ABL908-922 (FACS)", "assay_type": "cell-based", "conditions": "fibroblasts expressing HLA-DR1 (β86G→V)", "source_text": "as §1\nPeptide Loading of Cell Surface MHC Molecules. For loading experiments biotinylated antigenic peptides were incubated with 10 x 10^4 HLA-DR expressing cells/well in presence and absence of dipeptides at 37 °C in Dulbecco's modified Eagle's medium, 5% fetal calf serum in a 96 well V bottom plate for 4 hrs. FACS analysis was done as described previously (Höpner et al., (2006), supra)."}, "[4]": {"test_system": "CD4+ T cell hybridoma specific for the ABL epitope (SaABL/G5)", "experiment": "T cell assay, ABL908-922-loaded fibroblasts expressing HLA-DR1 (β86G→V)", "assay_type": "cell-based, mice", "conditions": "fibroblasts with mutated HLA-DR1 (β86G→V) loaded in the presence of dipeptides", "source_text": "as §1\nas §2, with “In experiments with PD-2 cell line, HTR's (as APCs) were pre-irradiated for 520 sec and then used for experiments.” left out"}, "[5]": {"conditions": "in the absence of the dipeptide catalyst"}, "[6]": {"conditions": "in the presence of Ac-FR-NH2 (5 mM per Fig. 5 legend)"}}, "note": "Entries after “also recorded” stand apart in the source; their conditions may differ. Peptide text beside a SMILES is read from it."}
{"compound": "CC(=O)N[C@@H](Cc1ccc(O)cc1)C(=O)N[C@@H](CCCNC(=N)N)C(N)=O", "note": "[Ac-YR-NH2]", "values": [{"measurement": "increase in the catalytic activity compared to the unmodified YR peptide", "setting": "[1]; complex formation between HA306-318 and HLA-DR1", "result": "more than 10 fold"}, {"measurement": "catalytic rate enhancement", "setting": "[1]", "result": 3.39, "unit": "mM⁻¹"}, {"measurement": "complex dissociation of CLIP/HLA-DR1", "setting": "CLIP/HLA-DR1 complex", "result": "weaker dissociation"}]}
{"compound": "HA306-318: high-affinity peptide ligand / antigen HA306-318 (PKYVKQNTLKLAT) [reference compound]", "values": [{"measurement": "half-maximal response (concentration of HA306-318)", "setting": "[2]; [5]", "result": 31, "unit": "ng/mL"}, {"measurement": "half-maximal response (concentration of HA306-318)", "setting": "human T cell line PD2; [5]", "result": 14, "unit": "ng/mL"}]}
{"compound": "CC(=O)N[C@@H](Cc1ccccc1)C(=O)N[C@@H](CCCNC(=N)N)C(N)=O", "note": "[Ac-FR-NH2] (Ac-Phe-Arg-NH2)", "values": [{"measurement": "on-rate is amplified by a factor of", "setting": "[1]; in the presence of 1 mM", "result": 7.08}, {"measurement": "catalytic rate enhancement", "setting": "[1]", "result": 6.08, "unit": "mM⁻¹"}, {"measurement": "half-maximal response (concentration of HA306-318)", "setting": "[2]; [6]", "result": 0.65, "unit": "ng/mL"}, {"measurement": "half-maximal response (concentration of HA306-318)", "setting": "human T cell line PD2; [6]", "result": 0.23, "unit": "ng/mL"}]}
{"compound": "N=C(N)NCCC[C@H](NC(=O)[C@@H](N)Cc1ccc(O)cc1)C(N)=O", "note": "[YR-NH2]", "values": [{"measurement": "complex formation between HA306-318 and soluble HLA-DR1 (catalytic activity)", "setting": "[1]", "result": "partial effect"}]}
{"compound": "N=C(N)NCCC[C@H](NC(=O)[C@@H](N)Cc1ccc(O)cc1)C(=O)O", "note": "[YR]", "values": [{"measurement": "complex formation between HA306-318 and soluble HLA-DR1 (catalytic activity)", "setting": "[1]", "result": "accelerated the MHC-loading with the HA306-318 peptide in a dose-dependent way"}]}
{"compound": "CC(=O)N[C@@H](C)C(=O)N[C@@H](CCCNC(=N)N)C(N)=O", "note": "[Ac-AR-NH2] (Ac-Ala-Arg-NH2)", "values": [{"measurement": "complex formation between HA306-318 and soluble HLA-DR1 (catalytic activity)", "setting": "[1]", "result": "completely inactive; also recorded: abrogated the effect"}]}
{"compound": "CC(=O)N[C@@H](Cc1ccc(O)cc1)C(=O)N[C@@H](CCCNC(=N)N)C(=O)O", "note": "[Ac-YR]", "values": [{"measurement": "complex formation between HA306-318 and soluble HLA-DR1 (catalytic activity)", "setting": "[1]", "result": "partial effect"}]}
{"compound": "CC(=O)N[C@@H](CCC(=O)O)C(=O)N[C@@H](CCCNC(=N)N)C(N)=O", "note": "[Ac-ER-NH2] (Ac-Glu-Arg-NH2)", "values": [{"measurement": "complex formation between HA306-318 and soluble HLA-DR1 (catalytic activity)", "setting": "[1]", "result": "No enhancement; also recorded: abrogated the effect"}]}
{"compound": "CC(=O)N[C@@H](CC(C)C)C(=O)N[C@@H](CCCNC(=N)N)C(N)=O", "note": "[Ac-LR-NH2]", "values": [{"measurement": "complex dissociation of CLIP/HLA-DR1", "setting": "CLIP/HLA-DR1 complex", "result": "weaker dissociation"}, {"measurement": "enhancement of ABL908-922 loading", "setting": "HLA-DR1 (β86G→V)", "result": "best enhancement"}, {"measurement": "loading of cells with ABL908-922 determined by FACS", "setting": "[3]", "result": "most effective"}, {"measurement": "ABL908-922-specific T cell stimulation", "setting": "[4]", "result": "most efficient ABL908-922-specific stimulation"}, {"measurement": "effect on the HA306-318-specific T cell response", "setting": "[2]; compared with Ac-FR-NH2", "result": "weaker effects"}, {"measurement": "effect on the HA306-318-specific T cell response", "setting": "human T cell line PD2; compared with Ac-FR-NH2", "result": "weaker effects"}]}
{"compound": "CC(=O)N[C@@H](Cc1c[nH]c2ccccc12)C(=O)N[C@@H](CCCNC(=N)N)C(N)=O", "note": "[Ac-WR-NH2] (Ac-Trp-Arg-NH2)", "values": [{"measurement": "catalytic rate enhancement", "setting": "[1]", "result": 3.54, "unit": "mM⁻¹"}]}
{"compound": "C[C@H](N)C(=O)N[C@@H](CCCNC(=N)N)C(=O)O", "note": "[AR] (H-Ala-Arg-OH)", "values": [{"measurement": "complex formation between HA306-318 and soluble HLA-DR1 (catalytic activity)", "setting": "[1]", "result": "No effect"}]}
